Series [1] in a line: Superoxide anion radical scavenging assay (pyrogallol/WST-1) in buffer. The format is biochemical. As to conditions: for AUC0–2.5 h of % superoxide scavenging response: 1 mM compound, pyrogallol 1 mM; for earliest time of superoxide (O2−) radical scavenging: buffer solution and TM cells; for superoxide radicals scavenged: dose response 1-1000 µM; for AUC0-15 of % superoxide scavenging response: different concentrations 1-1000 µM, 15 minutes time point. On the procedure:
(§1) The ROS scavenging ratio was determined using a chemical assay where WST-1 was used as superoxide scavenger produced by pyrogallol following a reported protocol. Briefly, the superoxide anion radical scavenging activity was determined spectrophotometrically by measuring the formation of WST-1 formazan at 450 nm. WST-1 (40 µL, 50 µM) was added to the compounds (or corresponding solution) in a final volume of 160 µL in 50 mM ammonium hydrogen carbonate buffer, 0.5 mM EDTA, pH 9.3. Reaction was launched by adding 40 µL 1 mM pyrogallol. The operation was based on the 96-well microplate, and measurement was performed at different time points under 37 °C by Cytation5 Microplate Reader. Baicalein (1 mM) was used as positive control. Compounds SA-2, SA-9, and SA-10 were used in concentrations ranging from 1 µM, 10 µM, 100 µM, and 1000 µM. The superoxide anion radical scavenging ratio % was calculated according to the following formula:Scavenging ratio (%) = A0 − (A1 − A2)/A0 × 100%

The test system of series [2] is NTM-5 cells. The series is described as follows: Superoxide scavenging ratio in NTM-5 cell supernatant (pyrogallol assay), with or without TBHP. The class given is cell-based, human. As to conditions: for AUC0-3h of superoxide scavenging ratio: NTM-5 cell supernatant, 18 h treatment, 0.1-1000 µM. Here is the method:
as §1, with “100% […]” for “100%”
(§2) The experiments were repeated twice with four technical replicates.
Figure 2 Superoxide scavenging ability of SA compounds in buffer and cells. (a) The % of superoxide scavenging response from 1 mM concentration of SA-2, SA-9, and SA-10 in pyrogallol (Pyr, 1 mM) induced superoxide induction assay at different time points in buffer. The AUC0–2.5 h for SA-2, SA-9, and SA-10 were 1592 ± 37.87, 1355 ± 42.62, and 2350 ± 69.26, respectively. (b) Comparison of the % ROS scavenging activity of SA-2, SA-9, and SA-10 with control after 15 min of treatment of pyrogallol. (c) The superoxide scavenging ratio (%) after 18 h treatment of 10 µM concentration of SA-2, SA-9, and SA-10 to NTM-5 cell supernatant using pyrogallol induced superoxide induction assay at different time points. (d) The superoxide scavenging ratio (%) of 10 µM concentration of SA-2, SA-9, and SA-10 in NTM-5 cell supernatant. The cells were previously treated with 5.5 mM of TBHP for 30 min followed by SA compounds and incubated for 18 h. Control is untreated cells. Three technical replicates were used for each experiment and all experiments were repeated 2 times. * p < 0.05, ** p < 0.005, *** p < 0.001, **** p < 0.0001, One-way ANOVA for (b), and two-way ANOVA for (c,d).
Figure S1: Superoxide scavenging ability of SA compounds in buffer and cells. a) The % of superoxide scavenging response from different concentrations of SA-2, SA-9 and SA-10 in pyrogallol (1 µM, 10 µM, 100 µM and 1,000 µM) induced superoxide induction assay at 15 minutes time point in buffer solution. The […]
superoxide scavenging ratio (%) after 18h treatment of different concentrations (0.1 µM, 1 µM, 10 µM, 100 µM and 1,000 µM) of SA-2, SA-9 and SA-10 to NTM-5 cell supernatant with or without TBHP (5.5 mM) using pyrogallol induced superoxide induction assay at 3h time point. Control is untreated cells. The cells were previously treated with 5.5 mM of TBHP for 30 minutes followed by SA compounds and TBHP and incubated for 18h. Control is untreated cells. e) The AUC0-3h for SA-2, SA-9 and SA-10 were 18902 ± 2714, […]
for each experiment and all experiments were repeated 2 times. N = 3.
(1 picture or pasted object on this page, not shown here)

Series [3] in a line: Hypochlorous acid (HOCl) radical scavenging assay (TNB) in buffer. The format is biochemical. Here is the method: This assay used the redox reaction between 5-thio-2-nitrobenzoic acid (TNB) and HOCl to form dithio-TNB. Using the method described previously, we assessed the % TNB remaining with or without treatment with SA compounds. Compounds SA-2, SA-9, and SA-10 were used in concentrations ranging from 0.1 µM, 1 µM, 10 µM, 100 µM, and 1000 µM. Lipoic acid (1 mM) was used as positive control.

Series [4] can be described thus: Total nitrite/NO release by Griess assay in buffer (aqueous stability). The class given is physicochemical. As to conditions: even after 3 days. On the procedure: The total nitrite released from the compounds in buffer and in cell supernatant were measured by Griess assay as reported by us previously. In brief, compounds (SA-2, SA-9, and SA-10) in buffer at different concentrations (1 mM, 500 µM, 250 µM 125 µM, 62.5 µM, 31.25 µM, and 15.625 µM) or supernatant collected from Human transformed trabecular meshwork (NTM-5) cells were added to a 96-well plate. 1% Sulphanilamide in 5% phosphoric acid and 0.1% N-1-napthylethylenediamine dihydrochloride (NED) were added to experimental samples sequentially at room temperature and away from light. SIN-1 was used as reference standard. […]

The subject of series [5] is NTM-5 cells. The series is described as follows: Total nitrite release by Griess assay in NTM-5 cell supernatant. The class given is cell-based, human. As to conditions: for NO released in NTM-5 cell supernatants: 28 h at 37 °C; for start of NO release: buffer solution and TM cells. On the procedure:
The total nitrite released from the compounds in buffer and in cell supernatant were measured by Griess assay as reported by us previously. In brief, compounds (SA-2, SA-9, and SA-10) in buffer at different concentrations (1 mM, 500 µM, 250 µM 125 µM, 62.5 µM, 31.25 µM, and 15.625 µM) or supernatant collected from Human transformed trabecular meshwork (NTM-5) cells were added to a 96-well plate. 1% Sulphanilamide in 5% phosphoric acid and 0.1% N-1-napthylethylenediamine dihydrochloride (NED) were added to experimental samples sequentially at room temperature and away from light. SIN-1 was used as reference standard. UV Absorbances (Cytation 5) were measured at specific timepoints (0, 5 min, 10 min, 15 min, 30 min, 24 h, and 28 h) at 520 nm.
as §2

The subject of series [6] is NTM-5 cells. The series is described as follows: In vitro cytoprotection assay against TBHP (MTT). The format is cell-based. As to conditions: Homo sapiens, TBHP 350 µM, read-out: EC50 of increase in cell viability (cytoprotection). Here is the method:
After 24 h of treatment, cell proliferation was measured using MTT assay. All the experiments are done in duplicate with four experimental replicates.

Series [7] relates to NTM-5 cells. The series is described as follows: In vitro peroxynitrite measurement assay. The class given is cell-based, human. As to conditions: 0.1 µM and 1 mM, with or without TBHP 350 µM. Here is the method: Human transformed trabecular meshwork (NTM-5) cells (20,000 cells/well/90 µL) were seeded in 96-well plates (Griener bio-one black plate) and stained with 10 µL of 10X Peroxynitrite Sensor Green solution for 1 h. […] SIN-1 was used as a positive control. Detection of peroxynitrite was done using Peroxynitrite Assay Kit (abcam-ab233468-cell based). Fluorescence signals were measured using a microplate reader (Cytation5) at Ex/Em = 485/530 nm at time intervals (15 min, 30 min, 1 h, 2 h, and 3 h). The experiments were done in duplicates.

Series [8] has as its system NTM-5 cells. The series is described as follows: In vitro cell viability (MTT) assay. The conditions noted are these: for cytotoxicity: NTM-5 cells, 24 h, up to 1000 µM.
Experimental: NTM-5 cells (6000 cells/well) were seeded in 96-well plates to confluency. […] The cell viability and proliferation were measured using MTT assays (CellTiter 96® AQueous One Solution Cell Proliferation Assay, Promega Madison, WI, USA) following manufacturer instruction. The experiments were repeated twice with four technical replicates.
For series [9], the system named is intraocular pressure. The arrangement: method as in PMID 8675417. As to conditions: rabbit eyes, 20 mM, intraocular injection; cited from earlier work.
Series [10] concerns intraocular pressure. The arrangement: method as in private communication, unpublished result. The conditions noted are these: monkey eyes; ref private communication, unpublished result; cited from earlier work.
The subject of series [11] is intraocular pressure. The series is described as follows: IOP lowering in dexamethasone induced ocular hypertensive (OHT) mouse eyes. The format is in vivo. The conditions noted are these: periocular once every week for 4 weeks, baseline 11.85 ± 2.27. Here is the method: Mice (C57BL/6J, 12 weeks, n = 3–5) were anesthetized and the periocular injection of dexamethasone acetate (DEX-Ac, 10 mg/mL) or vehicle (20 μL) was administered immediately under the isoflurane over the course of 10 to 15 s. The procedure was performed in both eyes of each mice after it was numbed with proparacaine as reported previously. Mice were treated with DEX-Ac or vehicle once per week for four weeks to achieve the desired IOP elevation. Baseline IOP was measured using tonometer. […] The entire dosing schedule was repeated 3 times in each mouse eye. IOP plots were generated from IOP values obtained from the treated eyes.

On the set-up of series [12]: method as in PMID 26832784. The conditions noted are these: PBS 7.4; cited from earlier work.

Molecules are shown by their SMILES.

Regarding `Cl.[NH-]c1c[n+](C2CCS(=O)(=O)CC2)no1` [SA-10, (3-(1,1-dioxidotetrahydro-2H-thiopyran-4-yl)-1,2,3-oxadiazol-3-ium-5-yl) amide hydrochloride], in series [1] (buffer), the “AUC0–2.5 h of % superoxide scavenging response” value is on record as 2350 ± 69.26, the superoxide radicals scavenged was 16–40% and the “AUC0-15 of % superoxide scavenging response” value was found to be 20433± 3128. For the same molecule, the “fold more potent than SA-2 in superoxide scavenging” value in series [1] (1 mM, buffer, 15 min after pyrogallol) is on record as 2.5 fold. Besides, in series [1], the “earliest time of superoxide (O2−) radical scavenging” value was 7 min. Besides, the “superoxide scavenging ability (ratio)” value in the series with NTM-5 cells [2] (10 µM for 18 h, NTM-5 cells insulted with TBHP, TBHP alone 2.5%) is 20–25%. Further, the “fold prevention of the decrease in superoxide scavenging ability vs TBHP alone” value with NTM-5 cells [2] (10 µM for 18 h, TBHP-treated NTM-5 cells) is listed as ~ 10 fold. Further, the “AUC0-3h of superoxide scavenging ratio” value in the series on NTM-5 cells [2] (with TBHP 5.5 mM) came to 17893 ± 2714. In addition, in the series with NTM-5 cells [2] (without TBHP), the “AUC0-3h of superoxide scavenging ratio” value came to 21444 ± 1877. The “fold more potent than lipoic acid in HOCl scavenging” value in series [3] (0.1 µM vs. 1 mM lipoic acid, 30 min) is given as 10,000 fold. Moreover, the “duration of HOCl scavenging effect” value in series [3] (0.1 µM–1000 µM in buffer) is on record as above 1 h. Besides, the “NO release in buffer” value in series [4] is on record as “did not observe any NO release”. Moreover, in the series on NTM-5 cells [5], the “NO released in NTM-5 cell supernatants” value was “dose dependently” and the “start of NO release” value was above 24 h. In the series on NTM-5 cells [6], the EC50 turned out to be 0.0103 µM. Moreover, the “ONOO− radical formation” value with NTM-5 cells [7] is on record as “not as efficacious as SA-9”. In the series on NTM-5 cells [8], the cytotoxicity result is recorded as “no cytotoxicity”.

In the case of `[NH-]c1c[n+](N2CCOCC2)no1` [SIN-1, linsidomine, reference compound], the “ONOO− radical formation” value with NTM-5 cells [7] is reported as “significantly higher level”. Moreover, the “duration of IOP reduction” value in the series on intraocular pressure [9] was “up to 3 h”.

In the case of `CCOC(=O)[N-]c1cn(N2CCOCC2)n[o+]1` [Molsidomine, molsidomine], the “NO release profile or IOP lowering activity” value in the series on intraocular pressure [10] is given as “no NO release profile or IOP lowering activity”.

`CC(=O)OCC(=O)[C@@]1(O)[C@H](C)C[C@H]2[C@@H]3CCC4=CC(=O)C=C[C@]4(C)[C@@]3(F)[C@@H](O)C[C@@]21C` [Dexamethasone, dexamethasone acetate]: the “IOP after dexamethasone injection” value in the series on intraocular pressure [11] stood at 21.9 ± 5.92 mm/Hg.

As for `CC1(C)CC([n+]2cc([NH-])on2)CC(C)(C)N1O` [SA-2, reference compound], in series [1] (buffer), the “AUC0–2.5 h of % superoxide scavenging response” value stood at 1592 ± 37.87, the superoxide radicals scavenged is on record as 16–40% and the “AUC0-15 of % superoxide scavenging response” value is 11604± 815.9. The “earliest time of superoxide (O2−) radical scavenging” value in [1] was 7 min. Besides, in the series with NTM-5 cells [2] (with TBHP 5.5 mM), the “AUC0-3h of superoxide scavenging ratio” value was determined as 18285 ± 3960. Besides, the “AUC0-3h of superoxide scavenging ratio” value in the series with NTM-5 cells [2] (without TBHP) is 18902 ± 2714. In the series on NTM-5 cells [5], the “NO released in NTM-5 cell supernatants” value is “dose dependently” and the “start of NO release” value is above 24 h. Further, the EC50 with NTM-5 cells [6] turned out to be 5.2 µM. Further, the “ONOO− radical formation” value in the series on NTM-5 cells [7] is on record as “produced less”. Moreover, the “half-life in PBS7.4” value in series [12] is below 1 h. Further, the cytotoxicity result with NTM-5 cells [8] is “no cytotoxicity”.

As for `CC(C)(C)OO` [TBHP, t-butyl hydrogen peroxide, reference compound], the EC50 in the series on NTM-5 cells [8] (Homo sapiens, read-out: half-maximal effective concentration (EC50) dose of TBHP) was found to be 350 µM.

The values are drawn from PMC8068288, “Novel Thiol Containing Hybrid Antioxidant-Nitric Oxide Donor Small Molecules for Treatment of Glaucoma” (Antioxidants, 2021).
